Experimental data reported in patent publication US20110135750A1, “ANTI-ALLERGEN COMBINATIONS OF CALCIUM AND LANTHANUM” (priority 2008, published 2011).

Target: T1, Der p1 (Dermatophagoides pteronyssinus, UniProt P08176)
T1 construct: Allergen stock solutions were derived from the extraction of the rearing medium of dust mites Dermatophagoides pteronyssinus; from tissue; host or cells: rearing medium of dust mites Dermatophagoides pteronyssinus (crude extract)
T1 sequence (P08176 99-320): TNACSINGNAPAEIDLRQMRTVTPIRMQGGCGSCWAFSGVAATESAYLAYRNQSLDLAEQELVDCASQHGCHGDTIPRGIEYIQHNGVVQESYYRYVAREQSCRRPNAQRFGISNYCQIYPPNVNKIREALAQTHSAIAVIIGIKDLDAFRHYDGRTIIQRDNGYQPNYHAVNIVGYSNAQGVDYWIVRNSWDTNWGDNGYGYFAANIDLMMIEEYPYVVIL
Assay: Allergen denaturing efficacy on Der p1-treated tissue, ELISA
Assay type: biochemical
Details: for Efficacy (%) on Der p1: tissue treated at 100 ml/m^2
Protocol: Allergen stock solutions were derived from the extraction of the rearing medium of dust mites Dermatophagoides pteronyssinus or by the extraction of cat exposed tissues. Allergens were always stored or diluted in Phosphate Buffered Saline (PBS) of pH 7.4 containing NaCl 8 g/L, KH2PO4 0.2 g/L, Na2HPO4 1.15 g/L, KCl 0.2 g/L, Tween 20 0.5 ml/L.
A tissue (Triconet: 40% PP, 60% Viscose, 0.7 mm thickness, 70 g/m^2) was treated with known amount of antigen, allowed to dry overnight and then treated with the allergen denaturing composition at 100 ml/m^2. The next day, the tissue was extracted in 5 ml of PBS and the concentration of allergen was determined by ELISA. ELISA tests were carried out according to the instructions of the commercially available test kits with monoclonal antibodies (www.inbio.com).
Briefly, anti-Der p1 or anti-Fel d1 monoclonal antibodies are diluted 1/1000 in 50 mM carbonate-bicarbonate buffer, pH 9.6. and 100 μl is coated on a polystyrene microtiter well and allowed to incubate overnight at 4° C. Then, wells are washed 3 times with PBS containing 0.05% Tween 20, pH 7.4. (further called: wash step with PBS-T). After incubation with 100 μl 1% BSA in PBS-T for 30 minutes at room temperature, another wash step is executed. Then, 100 μl of diluted allergen standard or test samples is added to each well and incubated for 1 hour at room temperature. After a wash step, 100 μl per well of 1/1000 diluted biotinylated anti-Der p1 or anti-Fel d1 monoclonal antibody is added and incubated for 1 hour at room temperature. Then, another wash step is executed and 100 μl/well of a Streptavidin-Peroxidase (Sigma S5512, reconstituted in 1 ml distilled water) is added as a 1/1000 dilution in PBS-T and incubated for 30 minutes at room temperature. After a final wash step, 100 μl/well of 1 mM ABTS (2,2′-azino-bis(3-ethylbenzthiazoline-6-sulfonic acid)diammonium salt) in 70 mM citrate phosphate buffer, pH 4.2, containing 0.03% H2O2, is added. The assay was allowed to develop after dark green colouring of the highest concentration of the allergen standard. Optical density was read at 405 nm.
Standard allergen dilution curves were taken for calibration. The range in which allergens can be quantified is 0.2-20 ppb for Fel d1 and from 1-100 ppb for Der p1. Dilutions were made until the concentration was in the right order of magnitude to enable quantification and percent reduction by the allergen denaturing composition.
Possible synergy was investigated using Limpet's formula (Richter, D. L., Pestic. Sci. 1987, 19: 309-315): […]
where Ec is the expected additive response, or calculated activity, X is the observed percentage control when component A is applied alone and Y is the observed percentage control when component B is applied alone. Synergy was considered to occur when the observed effect, or measured activity, of a combination of both components was greater than the corresponding Ec value.

Structure (SMILES) | Efficacy (%) on Der p1 (Ca^2+ 0.05% alone) [%] | Efficacy (%) on Der p1 (Ca^2+ 0.125% alone) [%] | Efficacy (%) on Der p1 (Ca^2+ 0.5% alone) [%] | Efficacy (%) Expected value (Ec) (Ca^2+ 1%, La^3+ 0%) [%] | Efficacy (%) Measured value (Ca^2+ 1%, La^3+ 0%) [%] | Efficacy (%) Synergy (measured minus expected) (Ca^2+ 1%, La^3+ 0%) [%] | Efficacy (%) on Der p1 (Ca^2+ 2.0% alone) [%] | Efficacy (%) on Der p1 (La^3+ 0.01% alone) [%] | Efficacy (%) on Der p1 (La^3+ 0.05% alone) [%] | Efficacy (%) on Der p1 (La^3+ 0.2% alone) [%] | Efficacy (%) on Der p1 (La^3+ 1.0% alone) [%]
[Ca+2] [Ca^2+] | 0 | 0 | 28 | 46 | 46 | 0 | 96 | – | – | – | –
[La+3] [La^3+] | – | – | – | – | – | – | – | 12 | 0 | 0 | 100
